Assay results taken from US20090202698A1, “OLIGOPEPTIDES FOR USE AS TASTE MODULATORS” (Nutrinova Nutrition Specialties & Food Ingredients GmbH, priority 2008, published 2009).

Molecular target: T1, human T1R2/T1R3 taste receptor (Homo sapiens, UniProt Q7RTX0+Q8TE23)
T1 construct: the cDNA for the receptors ht1R2 and ht1R3 and the cDNA for the blasticidin S deaminase gene have been cloned; expressed in transfected cells; host or cells: HEK293 stably expressing mouse G-alpha-15, stably transfected with the tricistronic vector pTrix-Eb-R2R3 (blasticidin selection)
T1 sequence (Q8TE23 20-839): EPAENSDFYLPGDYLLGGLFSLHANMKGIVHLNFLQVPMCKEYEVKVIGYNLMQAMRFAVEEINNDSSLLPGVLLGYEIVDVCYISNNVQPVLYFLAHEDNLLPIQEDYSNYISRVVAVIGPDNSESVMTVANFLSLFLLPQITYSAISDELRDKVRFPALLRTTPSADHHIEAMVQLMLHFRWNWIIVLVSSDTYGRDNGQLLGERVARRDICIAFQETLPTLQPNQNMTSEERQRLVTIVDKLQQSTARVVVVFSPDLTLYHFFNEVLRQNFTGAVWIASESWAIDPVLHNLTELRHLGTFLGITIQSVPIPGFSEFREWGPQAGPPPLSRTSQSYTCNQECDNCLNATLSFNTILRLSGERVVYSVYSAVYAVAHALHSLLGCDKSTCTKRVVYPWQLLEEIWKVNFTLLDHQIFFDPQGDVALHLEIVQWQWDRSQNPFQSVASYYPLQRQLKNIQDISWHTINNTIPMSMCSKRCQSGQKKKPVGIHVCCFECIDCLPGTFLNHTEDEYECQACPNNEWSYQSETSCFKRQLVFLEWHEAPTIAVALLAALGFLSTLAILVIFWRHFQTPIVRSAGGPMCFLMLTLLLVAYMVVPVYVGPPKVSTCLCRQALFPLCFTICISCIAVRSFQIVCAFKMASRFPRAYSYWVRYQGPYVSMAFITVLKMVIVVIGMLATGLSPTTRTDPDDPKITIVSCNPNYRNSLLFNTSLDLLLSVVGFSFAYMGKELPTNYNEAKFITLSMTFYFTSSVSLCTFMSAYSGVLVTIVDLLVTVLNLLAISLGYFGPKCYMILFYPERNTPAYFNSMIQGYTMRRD
T1 sequence (Q7RTX0 21-852): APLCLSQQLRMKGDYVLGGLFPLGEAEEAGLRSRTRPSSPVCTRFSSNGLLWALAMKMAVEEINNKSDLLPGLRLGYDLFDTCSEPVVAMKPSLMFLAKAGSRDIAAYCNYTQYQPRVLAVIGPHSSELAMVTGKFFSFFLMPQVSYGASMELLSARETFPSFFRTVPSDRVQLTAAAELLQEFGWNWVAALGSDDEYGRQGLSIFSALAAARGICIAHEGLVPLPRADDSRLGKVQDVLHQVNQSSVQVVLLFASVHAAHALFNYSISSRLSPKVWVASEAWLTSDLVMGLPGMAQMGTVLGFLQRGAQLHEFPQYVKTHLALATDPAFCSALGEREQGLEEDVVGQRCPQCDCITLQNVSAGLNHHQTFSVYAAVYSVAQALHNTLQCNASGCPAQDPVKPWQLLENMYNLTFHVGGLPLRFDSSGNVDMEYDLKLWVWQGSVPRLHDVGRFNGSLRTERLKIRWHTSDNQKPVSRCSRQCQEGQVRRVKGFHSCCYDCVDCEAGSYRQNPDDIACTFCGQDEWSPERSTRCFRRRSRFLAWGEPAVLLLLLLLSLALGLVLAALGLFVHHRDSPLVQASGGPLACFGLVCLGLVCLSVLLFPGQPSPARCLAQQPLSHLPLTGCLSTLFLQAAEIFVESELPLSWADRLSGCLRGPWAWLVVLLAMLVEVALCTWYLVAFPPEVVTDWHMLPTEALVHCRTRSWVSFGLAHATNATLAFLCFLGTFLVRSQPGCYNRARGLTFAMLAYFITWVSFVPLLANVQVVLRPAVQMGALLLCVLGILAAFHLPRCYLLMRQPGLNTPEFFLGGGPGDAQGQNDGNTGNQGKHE
Assay: Recombinant human T1R2/T1R3 taste receptor dependent calcium (Fluo-4 AM) cell based assay in stable HEK293 cells
Procedure: Fluo-4 AM assay with stable HEK293 cells—Stable cells are maintained in DMEM high-glucose medium (Invitrogen) supplemented with 10% fetal bovine serum (Biochrom) and 4 mM L-glutamine (Invitrogen). Cells for calcium imaging are maintained in DMEM low-glucose medium supplemented with 10% FBS and 1× Glutamax-1 (Invitrogen) for 48 hours before seeding. These stable cells are trypsinized after 48 hours (either with Trypsin-EDTA, Accutase or TrypLE) and seeded onto poly-D-lysine coated 96-well assay plates (Corning) at a density of 45,000 cells/well in DMEM low-glucose medium supplemented with 10% FBS and 1× Glutamax-1.
After 24 hours, the cells were loaded in 100 μl medium with additional 100 μl of 4 μM Fluo-4 (calcium sensing dye, 2 μM end concentration; Molecular Probes) in Krebs-HEPES (KH)-buffer for 1 hour. The loading reagent is then replaced by 80 μl KH-buffer per well. The Krebs-HEPES-buffer (KH-buffer) is a physiological saline solution including 1.2 mM CaCl2, 4.2 mM NaHCO3 and 10 mM HEPES.
The dye-loaded stable cells in plates were placed into a fluorescence microtiter plate reader to monitor fluorescence (excitation 488 nm, emission 520 nm) change after the addition of 20 μl KH-buffer supplemented with 5x tastants. For each trace, tastant was added 11.5 seconds after the start of the scan and mixed two times with the buffer, scanning continued for an additional 32 seconds, and data were collected every second.
Data analysis/Data recording—Calcium mobilization was quantified as the change of peak fluorescence OF) over the baseline level (F). Data were expressed as the mean S.E. of the )F/F value of replicated independent samples. The analysis was done with the software of the microtiter plate reader.
To analyze the function and activity of aladapcin the heterodimeric T1R2/T1R3 sweet taste receptor has been utilized in a calcium dependent cell based assay. T1R type taste receptors have been transfected with the multicistronic plasmid vector pTrix-Eb-R2R3 in a HEK293 cell line stably expressing the promiscuous mouse G-alpha-15 G-protein. […]

Compound | aladapcin activity on sweet taste receptors (activity as sweet enhancer): amplification of fructose (in the presence of 25 mM fructose, Fluo4-AM fluorescence increase, HEK293 cells expressing G-alpha-15, human T1R2 and T1R3, FIG. 2) | sweetener potential (receptor activation by the compound alone) (without the presence of fructose (control measurement), range 0.1-25 μm, FIG. 3) | activation of the sweet taste receptors by the sweetener alone (25 mM fructose (4.5 g/l), preexaminations)
CC(NC(=O)C(C)NC(=O)C(N)CCCC(N)C(N)=O)C(=O)O (stereo not drawn) [Aladapcin, 2-[2-[(2,6-diamino-6-carbamoyl-hexanoyl)-amino]propanoylamino]propanoic acid] | dose dependent | no sweetener potential | –
O=C(CO)[C@@H](O)[C@H](O)[C@H](O)CO [fructose, reference compound] | – | – | barely activating
